Measured values reported in US20220409595A1, “GLUCOSYLCERAMIDE SYNTHASE INHIBITORS” (GENZYME CORPORATION, priority 2013, published 2022).
“Also recorded” adds a separate entry of the source. Like-named read-outs stand apart in the source and are kept apart here.

Key:
[1] = system: K14 mouse model of type 2 Gaucher disease; settings: cited from earlier work
[2] = system: Fabry iPSC-derived cardiomyocytes; test: GL-3 content of Fabry iPSC-derived cardiomyocytes (beating EBs) by mass spectrometry; assay type: cell-based, human
Description: GCS452 [(S)-quinuclidin-3-yl (2-(2-(4-fluorophenyl)thiazol-4-yl)propan-2-yl) carbamate], a selective glucosylceramide synthase inhibitor, was tested to evaluate its potential to prevent GL-3 accumulation in Fabry iPSC-derived cardiomyocytes. EBs were treated eighteen days after induction of cardiac differentiation. At this time point, accumulation was low in the FD cardiomyocytes (FIG. 4). The FD and WT cardiomyocytes were treated with 1 μM GCS452 for 15 days.
It was next determined whether the compound could reduce levels of accumulated GL-3 when significant GL-3 accumulation is present at the start of treatment (FIG. 4). […]
In parallel, it was investigated whether agalsidase beta could clear accumulated GL-3 in one month old Fabry cardiomyocytes. EBs were treated with 0.3p g/mL of agalsidase beta for 5 days and GL-3 content was analyzed as described for GCS452. GL-3 vacuoles were not detected in treated Fabry cardiomyocytes using ICC (FIG. 5C). […]
Pellets containing EBs were extracted in a solution of acetonitrile:methanol (1:1). The extracts were directly injected onto a 2.1×100 mm, 1.7 μM BEH Hilic column (Waters), resolved with a Waters Acquity UPLC system, and analyzed for C16, C18, C20, C22, C23, C24, C24:1, C24(OH), and C24:1(OH) GL-3 isoforms and lyso-GL-3 in multiple-reaction monitoring (MRM) and positive-ion mode with an API-4000 mass spectrometer (ABSciex, Framingham, Mass.). […]

[3] = system: Fabry iPSC-derived cardiomyocytes; test: Immunocytochemistry of GL-3 and Lamp2 in Fabry iPSC-derived cardiomyocytes; assay type: cell-based, human
Description: It was next determined whether the compound could reduce levels of accumulated GL-3 when significant GL-3 accumulation is present at the start of treatment (FIG. 4). Twenty eight post-start of differentiation, beating EBs were treated with 1 μM of GCS452 for 15 days. The EBs were dissociated and plated at the end of the treatment, and ICC analysis was performed. […] GL-3 reduction in treated Fabry EBs was confirmed by mass spectrometry. While there was a 13 to 18 fold increase of GL-3 in untreated FD cardiomyocytes compared to WT, GL-3 levels increased by 4.5 to 5.5 fold in treated FD cardiomyocytes after 15 days of treatment with GCS452. This corresponds to a 2.3 to 2.8 fold reduction in accumulated GL-3 as compared to GL-3 levels at the start point (TO) of treatment (FIG. 5B). In parallel, it was investigated whether agalsidase beta could clear accumulated GL-3 in one month old Fabry cardiomyocytes. EBs were treated with 0.3p g/mL of agalsidase beta for 5 days and GL-3 content was analyzed as described for GCS452. GL-3 vacuoles were not detected in treated Fabry cardiomyocytes using ICC (FIG. 5C). […] One month old beating EBs were harvested and dissociated by using the embryoid body dissociation kit (Miltenyi Biotech, Bergisch Gladbach). Dissociated cells were plated on matrigel coated dishes. Five days latter, cells were fixed using 8% de formaldehyde solution (Sigma-Aldrich, St. Louis, Mo.) in DPBS (Gibco, Carlsbad, Calif.) and permeabilized in 0.05% Tween 20 (Sigma Life Science, St. Louis, Mo.) 20 minutes at room temperature. The samples were incubated with the primary antibodies over night at 4° C. Secondary antibodies were applied one hour at room temperature. Primary antibodies used were mouse monoclonal IgG1 directed against—Actinin, at the final dilution 1/1500 (Sigma Life Science, St. Louis, Mo.), rat monoclonal IgM directed against GL-3/CD77, at the final dilution 1/300 (Abcam, Cambridge, US) and mouse monoclonal IgG1 directed against LAMP2, at the final dilution 1/500 (Santa Cruz Biotechnology, Dallas, Tex.). The secondary antibodies were Alexa Fluor 488 goat anti-mouse IgG (Molecular Probes, Carlsbad, Calif.) Alexa Fluor 555 goat anti-mouse IgG (Molecular Probes, Carlsbad, Calif.) and Alexa Fluor 488 goat anti-rat IgG (Molecular Probes, Carlsbad, Calif.). They were used at the final dilution 1/1000.

Fabry patients = settings: cited from earlier work
[4] = 1 μM for 15 days, treatment from day 28
[5] = 0.3p g/mL for 5 days, one month old Fabry cardiomyocytes
[6] = 3 μg/mL, one month old Fabry iPSC-derived cardiomyocytes, end of treatment

CC(C)(NC(=O)OC1CN2CCC1CC2)c1cccc(-c2ccc(F)cc2)c1 (centres unmarked) [Gz161, Quinuclidin-3-yl (2-(4′-fluoro-[1,1′-biphenyl]-3-yl)propan-2-yl)carbamate]
brain neuropathology [1]: reduced | lifespan [1]: extended | brain GluCer and GluSph ([1]; see Examples 122-125 of WO2012/129084): reduce

CC(C)(NC(=O)O[C@@H]1CN2CCC1CC2)c1csc(-c2ccc(F)cc2)n1 [GCS452, (S)-quinuclidin-3-yl (2-(2-(4-fluorophenyl)thiazol-4-yl)propan-2-yl) carbamate]
GL-3 levels / accumulation in treated FD cardiomyocytes (prevention) ([2]; 1 μM for 15 days, treatment from day 18 after induction of cardiac differentiation): close to the physiological levels of WT untreated cells | GL-3 labeling (ICC) [3, 4]: not or was very slightly detectable; also recorded: significant reduction | Lamp2 signal intensity / number of Lamp2 vacuoles (ICC) [3, 4]: reduced; also recorded: concomitant decrease

agalsidase beta: recombinant α-GalA, enzyme replacement therapy approved for the treatment of Fabry disease
GL-3 clearance in Fabry cardiomyocytes [2, 5]: Complete clearance; also recorded: clearance of GL-3 | GL-3 content (ICC), FIG. 5C legend [3, 6]: not or was very slightly detectable | number of Lamp2 vacuoles and intensity of the signal (ICC), FIG. 5C legend [3, 6]: reduced | GL-3 vacuoles (ICC) [3, 5]: not detected | GL-3 deposits / accumulation in cardiomyocytes (Fabry patients; Fabry patients, cardiac biopsies, after 5 and 12 months of treatment): not reduced; also recorded: no effect | GL-3 deposits in capillary endothelium / heart microvasculature (Fabry patients; Fabry patients): effectively clears | GL-3 deposits in capillary endothelium / heart microvasculature (Fabry patients; Fabry patients, listed as Agalsidase beta): consistently clear | left ventricular mass (Fabry patients; treated Fabry patients): Modest reductions
